In publication PMC2873402, “Discovery of High-Affinity Protein Binding Ligands – Backwards” (PLoS ONE, 2010):
Bridge positions count the residues as written; N and C are the ends. Ends that are not written are not given here. I, II: the chains in the order shown. * marks the point of attachment. StBu = CC(C)(C)S*

Tests used:
AKT1 [1] = molecular target: T1, AKT1 (Homo sapiens, UniProt P31749); assay: IP of AKT1 from solution, Western Blot; assay type: binding; set-up: purchased Life Technologies; conditions: synbody with C-terminal Lys-Biotin on streptavidin magnetic beads, 89 nM to 0.7 nM AKT1, overnight, 4°C
T1 sequence (P31749 whole entry): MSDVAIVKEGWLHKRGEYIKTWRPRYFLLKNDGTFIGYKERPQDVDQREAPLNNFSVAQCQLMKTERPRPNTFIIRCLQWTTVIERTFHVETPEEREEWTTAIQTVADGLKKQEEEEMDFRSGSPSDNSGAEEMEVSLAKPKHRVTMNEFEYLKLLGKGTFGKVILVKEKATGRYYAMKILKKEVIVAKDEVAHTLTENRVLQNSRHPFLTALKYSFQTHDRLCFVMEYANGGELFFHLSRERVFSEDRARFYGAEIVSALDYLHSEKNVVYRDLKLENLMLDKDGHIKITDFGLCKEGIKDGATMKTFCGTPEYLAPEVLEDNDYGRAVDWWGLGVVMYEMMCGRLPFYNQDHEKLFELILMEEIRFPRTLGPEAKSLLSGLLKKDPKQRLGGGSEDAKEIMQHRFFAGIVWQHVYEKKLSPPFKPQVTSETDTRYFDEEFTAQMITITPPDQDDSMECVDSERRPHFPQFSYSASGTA
Protocol: The synbody was tested for its ability to bind native protein in solution. A variant of the synbody was prepared in which the C-terminal Cys was replaced with a Lys-Biotin. The synbody was used in an immunoprecipitation (IP) experiment in which it was bound to streptavidin magnetic beads and incubated overnight with 89 nM to 0.7 nM solutions of AKT1. The beads were washed extensively and the bound protein was eluted. Samples were run on a SDS-PAGE gel and detected by Western Blot with an anti-AKT1 monoclonal antibody (Figure 3B).
(§1) For all IP experiments, either a 1 µM or 250 nM solution of biotin-conjugated synbody was captured on 20 µL of streptavidin coated paramagnetic M-280 Dynabeads (Life Technologies) according to the manufacturers protocol. Synbody coated beads were washed five times with 1 mL of 100 mM phosphate buffered saline containing 0.05% Tween-20 (PBST) and incubated overnight at 4°C with shaking in the desired amount of target protein in A549 cell lysate. For Kd determination experiments, serial dilutions of AKT1 or ABL1 were prepared in binding buffer. After binding, beads were washed five times with 1 mL of PBST and heated at 70°C in 20 µL of 1× LDS loading buffer (Invitrogen) for 10 minutes. The samples were analyzed by SDS-PAGE gel with Western Blot detection using the appropriate antibody and imaged on a GE Healthcare Typhoon Trio.

AKT3 = assay: Protein array (ProtoArray), binding to AKT3; set-up: species or system human
Protocol: Synbodies were screened on an Invitrogen ProtoArray™ (Life Technologies, Carlsbad, CA, USA) detected with Alexa-555 labeled streptavidin (Life Technologies), and scanned using a Perkin Elmer ProScan Array HTP. The spots were analyzed using GenePix Pro (Molecular Devices, Sunnyvale, CA, USA) and data were processed using Genespring GX (Agilent Technologies, Santa Clara, CA, USA). Synbodies were labeled with biotin using either Maleimide-PEG2-Biotin (Thermo Pierce, Rockford, IL, USA) to label the C-terminal cysteine or biotin was incorporated during synbody synthesis by replacing the C-terminal cysteine with Lys-biotin (Novabiochem, San Diego, CA, USA). Synbodies were screened on the array using the recommended protocol with the following modifications: the arrays were blocked with 5 mL blocking buffer (50mM HEPES pH 7.5, 200 mM NaCl, 0.08% Triton X-100, 25% Glycerol, 20mM reduced Glutathione, 1.0mM DTT, 1% BSA) for 90 min. A 200 nM synbody solution was incubated in probing buffer (1× PBS, 1% BSA, 0.1% Tween) for 90 minutes. Slides were dried by centrifugation at 200g for 1 minute and scanned at 100% laser power and 70% photomultiplier voltage. The gal file was obtained for each array by submitting the barcode of the array to www.invitrogen.com/protoarray.
Heat maps were constructed using median-normalized data from each ProtoArray. […]

AKT1 [2] = molecular target: T1, AKT1; assay: IP of AKT1 from pre-cleared A549 lysate with silver stain detection; assay type: binding; set-up: purchased Life Technologies
Protocol: However, to more rigorously test the specificity of the synbody, we reduced the molar ratio of synbody to protein to approximately 2 to 1 and performed an IP to examine other proteins that were non-specifically bound by the synbody. In this experiment, 400 ng of AKT1 (66.4 nM) was spiked into 100 and 500 µg of A549 cell lysate pre-cleared on streptavidin beads (Figure S3) and precipitated using streptavidin beads coated with 15 pmols of synbody. Synbody coated beads and uncoated streptavidin beads were incubated overnight, washed, and bound proteins were eluted. Elution samples were split with half of the sample analyzed by silver stain and half analyzed by Western Blot (Figure 3E).
as §1
Due to the high-level of A549 lysate protein binding to the magnetic beads used previously, we pre-cleared the cell lysate prior to IP. This was accomplished by overnight incubation of 1 mL of lysate (∼5 mg/mL) with 1 mL of streptavidin beads. The supernatant was removed and this lysate was used in subsequent experiments. […] One half of each elution sample was analyzed by SDS-PAGE followed by staining using a SNAP Silver Stain kit (Thermo Pierce) while the other half of the sample was analyzed by SDS-PAGE with Western Blot detection as before.

AKT1 [3] = molecular target: T1, AKT1; assay: IP of endogenous AKT1 from A549 lysate; assay type: binding; set-up: N-terminal vector leader of pEXP5-NT (6xHis + TEV site by own knowledge of the vector); made in house; host or cells: Expressway Mini Cell-Free Expression System (in vitro translation); conditions: un-stimulated A549 lysate, 25 pmols synbody
Protocol: As a preliminary test of specificity, 200 ng of AKT1 (33.2 nM) was spiked into increasing amounts of cell lysate prepared from un-stimulated A549 lung epithelial cells and streptavidin beads coated with 25 pmols of synbody (7.6∶1 synbody-to-AKT1 ratio) were used to pull down AKT1 using the same IP procedure and Western Blot protocol as before.
as §1

AKT1 [4] = molecular target: T1, AKT1; assay: Protein array (ProtoArray), binding to AKT1; set-up: purchased Life Technologies; conditions: 200 nM synbody, fluorescently labeled streptavidin
Excerpt: To test this approach, a candidate synbody was constructed using two peptides, […] and […], referred to as peptides 1 and 2, respectively. The sequences of the first 17 aa of these peptides were generated using a random number generator and three constant positions on the C-terminus that served as a spacer between the linker scaffold and the active portion of each peptide. A divergent synthetic method was used in which peptide 1 was synthesized from C to N terminus from the α-amine of lysine and peptide 2 was synthesized from the ε-amine of lysine (Figure 2A, Materials and Methods S1, Figure S1). The synbody was tagged on the C-terminus with biotin and screened against a Life Technologies ProtoArray™. ProtoArrays are nitrocellulose coated slides onto which 8,303 recombinant human proteins have been spotted. After a 2-hour incubation, the array was washed and bound synbody was detected using fluorescently labeled streptavidin. […]
Synbodies were screened on an Invitrogen ProtoArray™ (Life Technologies, Carlsbad, CA, USA) detected with Alexa-555 labeled streptavidin (Life Technologies), and scanned using a Perkin Elmer ProScan Array HTP. The spots were analyzed using GenePix Pro (Molecular Devices, Sunnyvale, CA, USA) and data were processed using Genespring GX (Agilent Technologies, Santa Clara, CA, USA). […]

## I: AHKVVPQRQIRHAYNRYGSGKC(StBu)-NH2 / II: FRGWAHIFFGPHVIYRGGSG (amide I:21-II:C) [synbody]
AKT1 [1]
  IP of AKT1 from solution: bound AKT1 from solution
AKT3
  binding to AKT3 on protein array: little binding
AKT1 [2]; 400 ng AKT1 (66.4 nM) in pre-cleared A549 lysate, 500 µg (5mg/ml), 15 pmols synbody (approx. 2:1)
  proteins precipitated (silver stain): AKT1 was precipitated along with two other prominent proteins
AKT1 [2]; 400 ng AKT1 in 100 or 500 µg pre-cleared A549 lysate, Western Blot confirmation
  dominant band precipitated: the dominant band precipitated by the synbody was AKT1
AKT1 [2]; IP silver stain, A549 lysate
  specificity: useful, though not perfect specificity
AKT1 [3]
  precipitation of endogenous AKT1: precipitates the very low level endogenous AKT1 from the un-stimulated cell lysate
AKT1 [4]
  binding to AKT1 on protein array (top 10 proteins): twice in the top 10 proteins bound by the synbody
